Measured values: patent publication US20220339150A1, “ENDOCANNABINOID SYSTEM-TARGETING PRODRUGS AND THERAPEUTIC USES THEREOF” (priority 2021, published 2022)
“Also recorded” adds a separate entry of the source. Like-named read-outs stand apart in the source and are kept apart here.

Key:
[1] = Stability in aqueous solutions (sodium phosphate buffer, 37° C.); assay type: physicochemical; details: for half-life: buffer, read-out: Half-life in aqueous solution (converted)
Method: […] The solutions of prodrugs were prepared by adding 10 μL of stock solution (10 mg/mL in DMSO) to the preheated buffer. The solutions were stirred at a constant temperature of 37° C. At appropriate intervals, 75 μL of samples were mixed with 75 μL of MeOH and analyzed for remaining prodrug by HPLC.
The pseudo-first-order rate constants (kobs) and half-lives (t1/2) for the degradation of the prodrugs were determined from the linear slopes of the plots by taking the logarithm of the remaining prodrug over time. Equations: kobs=slope/−2.303 and t1/2=ln2/kobs.

[2] = Metabolic stability in human liver microsomes; assay type: in vitro ADME; details: for half-life at 15 µg/mL / half-life: both sexes, human, microsomes
Method: The prodrugs were incubated with the human liver microsomes at 37° C. as an indication of the susceptibility of prodrugs to undergo bioconversion in the liver. The reactions were initiated by adding 1.5 μL of the prodrug stock solution (10 mg/mL in DMSO) to a preheated solution consisting of 748.5 μL potassium phosphate buffer solution (20 mM, pH 7.4, ionic strength 0.5), 200 μL NADPH, and 50 μLhuman liver microsomes (mixed gender, 0.5 ml at 20 mg/mL). The solutions were stirred at a constant temperature of 37° C. At appropriate intervals, 50 μLof samples were mixed with 100 μL of ice-cold MeOH. After immediate mixing and centrifugation (5 min at 14.000 rpm), the resulting clear supernatant was analyzed for the remaining prodrug by HPLC.

[3] = system: reconstructed human epidermis cells; assay: In vitro skin permeability (SkinEthic Episkin reconstructed human epidermis); assay type: in vitro ADME; details: for Skin permeation, applied compound (parent or intact prodrug): receiver 15% HP-beta-CD pH 7.4
Method: (§1) The in vitro permeability studies were carried out in commercial reconstructed human epidermis cells (SkinEthic™ Episkin Reconstructed human epidermis). This model is composed of TR146 cells (derived from a squamous cell carcinoma of the buccal mucosa) cultivated on an inert polycarbonate filter at the air-liquid interface in a chemically defined medium. This model forms an epithelial tissue devoid of stratum corneum, resembling histologically to the mucosa of the oral cavity.
Upon receiving the cells, each insert (0.5 cm^2 or 0.33 cm^2) was placed in a plate containing 800 μL fresh medium at room temperature. The culture dishes were placed in the incubator at 37° C., 5% CO2, and saturated humidity overnight. Next day, the inserts were placed in a plate containing 800 μL 15% HP-β-cyclodextrin in H2O. CBD and CBG, and prodrugs CBDp27 and CBGp1 were dissolved in two different vehicles, 1:1:1 prop gly:water:EtOH/6% Brij 98, and 100% mineral oil. The receiver solution was 15% HP-beta-CD in phosphate buffer (pH 7.4). 400 μL the prodrugs were applied as suspensions (ca. 2 mg/ml). The plates were stirred gently at 37° C. At appropriate intervals, the receptor compartment was sampled (100 μL) and replenished with fresh […] solution each time. The samples were mixed with 100 μL of MeOH, and analyzed for drug (both the parent drug and prodrug) by HPLC-MS.
The flux-values for the rate of delivery of drugs were determined from Fick's law of diffusion.

[4] = system: reconstructed human oral buccal epithelium cells (SkinEthic HOE, TR146 cells); assay: In vitro buccal permeability (SkinEthic human oral epithelium); assay type: in vitro ADME; details: for Buccal permeation compared with parent cannabinoid (in words): 5% ethanol suspension; for Species making up the buccal flux / formation of parent cannabinoid / Flux (buccal) / Flux compared with parent cannabinoid: Table 4; for Flux (buccal): suspension ca. 2 mg/ml in 5% EtOH/phosphate buffer pH 6.8, 37° C., receiver 15% HP-β-cyclodextrin; for Flux compared with parent cannabinoid: buccal flux relative to parent
Method: as §1, with “oral buccal epithelium” for “epidermis”, “(SkinEthic™” for “(SkinEthic™ Episkin Reconstructed”, “oral epithelium). The SkinEthic™ HOE” for “epidermis). This”
Upon receiving the cells, each insert (0.5 cm^2 or 0.33 cm^2) was placed in a plate containing 800 μL fresh medium at room temperature. The culture dishes were placed in the incubator at 37° C., 5% CO2, and saturated humidity overnight. Next day, the inserts were placed in a plate containing 800 μL 15% HP-β-cyclodextrin in H2O. The prodrugs were dissolved in 100% EtOH (5% (V/V) final conc.), and then sodium phosphate buffer solution (50 mM, pH 6.8, isotonic, 37° C.) was added (95% (V/V) final conc.). 400 μL of the prodrugs were applied as suspensions (ca. 2 mg/ml). The plates were stirred gently at 37° C. At appropriate intervals, the receptor compartment was sampled (100 μL) and replenished with fresh […] solution each time. The samples were mixed with 100 μL of MeOH, and analyzed for drug (both the parent cannabinoid and the prodrug) by HPLC-MS.
The buccal flux-values for the rate of delivery of drugs were determined from Fick's law of diffusion.

[5] = Stability in 80% human plasma (serum); assay type: in vitro ADME; details: 80% human serum (pH 7.4) at 37° C.
Method: The rates of the degradation of the prodrugs were determined in 80% human serum (pH 7.4) at 37° C. as an indication of the susceptibility of prodrugs to undergo bioconversion after reaching the circulation. The reactions were initiated by adding the first 10 μL of the prodrug stock solution (10 mg/mL in DMSO) to 200 μL preheated sodium phosphate buffer solution (50 mM, pH 7.4, ionic strength 0.5), and then adding 800 μL preheated human serum. The solutions were stirred at a constant temperature of 37° C. At appropriate intervals, 50 μL of samples were mixed with 150 μL of ice-cold MeOH. After immediate mixing and centrifugation (5 min at 14.000 rpm), the resulting clear supernatant was analyzed for the remaining prodrug by HPLC.

[6] = vehicle solvent mix (1:1:1 prop gly:water:EtOH/6% Brij 98)
[7] = Table 5, aqueous buffer pH 6.8, 37° C., single determinations
[8] = pH 6.8, Table 5, aqueous buffer pH 6.8, 37° C., single determinations
[9] = pH 7.4, Table 5, 37° C., NADPH, read-out: Half-life in human liver microsomes (single determinations) (converted)
[10] = pH 7.4, Table 5, average of determinations, read-out: Half-life in human liver microsomes (avg.) (converted)

Structure (SMILES) | Skin permeation of prodrug relative to parent cannabinoid ([3]; mineral oil) | Skin permeation of prodrug relative to parent cannabinoid ([3]; solvent mix) | Skin permeation, applied compound (parent or intact prodrug) ([3]; vehicle mineral oil) | Skin permeation, applied compound (parent or intact prodrug) [3, 6] | Buccal permeation compared with parent cannabinoid (in words) [4] | Half-life in aqueous solution [1, 7] | half-life [1, 8] | Half-life in human liver microsomes (single determinations) ([2]; Table 5, 37° C., NADPH) | half-life [2, 9] | half-life [2, 10] | Species making up the buccal flux / formation of parent cannabinoid ([4]; remark in flux cell) | Flux (buccal) [4] | Half-life in serum ([5]; Table 5) | half-life at 15 µg/mL [2, 10] | Flux compared with parent cannabinoid [4] | also measured
C=C(C)[C@@H]1CCC(C)=C[C@H]1c1c(O)cc(CCCCC)cc1OC(=O)NCCN(C)C [CBDp27, (1′R,2′R)-6-hydroxy-5′-methyl-4-pentyl-2′-(prop-1-en-2-yl)-1′,2′,3′,4′-tetrahydro-[1,1′-biphenyl]-2-yl (2-(dimethylamino)ethyl)carbamate] | ~140 fold | ~40 fold | 3.28 ± 0.15 nmol/cm^2/h | 47.42 ± 5.23 nmol/cm^2/h | better than that of CBD; also recorded: superior when compared to CBD and other prodrugs | – | – | – | – | – | – | – | – | – | – | Half-life in aqueous solution ([1]; Table 3, aqueous buffer pH 6.8, 37° C.): 10.2 min; Half-life in aqueous solution ([1]; Table 3, pH 3): (pH 3 = stable,; Half-life in aqueous solution ([1]; Table 3, pH 4): pH 4 = stable,; Half-life in aqueous solution ([1]; Table 3, pH 5): pH 5 = stable,; half-life ([1]; pH 6.8, Table 3, aqueous buffer pH 6.8, 37° C.): 8.4 min; half-life ([1]; pH 7.4, Table 3, pH 7.4): 52.2 min; half-life ([1]; pH 8, Table 3, pH 8): 65.4 min; half-life ([1]; pH 9, Table 3, pH 9): 98.4 min; Half-life in human liver microsomes (single determinations) ([2]; Table 3, 37° C., NADPH): 3.13; 3.13 h; half-life at 15 µg/mL ([2]; pH 7.4, Table 3, 37° C., NADPH, read-out: Half-life in human liver microsomes (single determinations) (converted)): 188 min; half-life at 15 µg/mL ([2]; pH 7.4, Table 3, average of determinations, read-out: Half-life in human liver microsomes (avg.) (converted)): 188 min; Species making up the buccal flux (parent vs intact prodrug) ([4]; Table 2, remark in flux cell): CBD + prodrug; Half-life in serum ([5]; Table 3): stable
CCCCCc1cc(O)c(C/C=C(\C)CCC=C(C)C)c(OC(=O)C2CCNC2)c1 (centres unmarked) [CBGp1, (E)-2-(3,7-dimethylocta-2,6-dien-1-yl)-3-hydroxy-5-pentylphenyl pyrrolidine-3-carboxylate] | ~13 fold | > 300 fold | 0.54 ± 0.19 nmol/cm^2/h | 148.0 ± 40.9 nmol/cm^2/h | – | 32.4 min | 30 min | 40.2 min | 38.4 min | 39.6 min | (CBG + prodrug) | 111.79 ± 2.59 nmol/cm^2/h | 44.4 min | – | – | half-life ([5]; human, serum, pH 7.4, Table 5): 42 min
CCCCCc1cc(OC(=O)N2CCN(C)CC2)c(C/C=C(\C)CCC=C(C)C)c(OC(=O)N2CCN(C)CC2)c1 [CBGp3, (E)-2-(3,7-dimethylocta-2,6-dien-1-yl)-5-pentyl-1,3-phenylene bis(4-methylpiperazine-1-carboxylate)] | – | – | – | – | – | 22.8 min | 16.8 min | – | – | – | NO significant formation of CBGp2 or | 30.60 ± 2.02 (prodrug) nmol/cm^2/h | No degradation | 114 min | 2.6-times better | Flux compared with parent cannabinoid ([4]; listed as bis-methylpiperazine carbamate prodrug of CBG): 2.6 times
CCCCCc1cc(O)c(C/C=C(\C)CCC=C(C)C)c(OC(=O)N2CCNCC2)c1 [CBGp5, (E)-2-(3,7-dimethylocta-2,6-dien-1-yl)-3-hydroxy-5-pentylphenyl piperazine-1-carboxylate] | – | – | – | – | – | 15.6 min | 22.8 min | 107 min | – | – | NO significant formation of CBG | 10.31 ± 0.54 (prodrug) nmol/cm^2/h | No degradation | 92.4 min | No improvement | half-life at 15 µg/mL [2, 9]: 77.4 min
CCCCCc1cc(OC(=O)N2CCN(C)CC2)c2c(c1)OC(C)(C)[C@@H]1CCC(C)=C[C@@H]21 [THCp1, (6aR,10aR)-6,6,9-trimethyl-3-pentyl-6a,7,8,10a-tetrahydro-6H-benzo[c]chromen-1-yl 4-methylpiperazine-1-carboxylate] | – | – | – | – | – | 24.6 min | 39.6 min | 301 min | 158 min | 230 min | NO significant formation of THC | 19.22 ± 0.29 (prodrug) nmol/cm^2/h | No degradation | – | No improvement | –
CCCCCc1cc(OC(=O)N2CCNCC2)c2c(c1)OC(C)(C)[C@@H]1CCC(C)=C[C@@H]21 [THCp3, (6aR,10aR)-6,6,9-trimethyl-3-pentyl-6a,7,8,10a-tetrahydro-6H-benzo[c]chromen-1-yl piperazine-1-carboxylate] | – | – | – | – | slightly better than THC | 64.2 min | 45.6 min | – | – | 219 min | NO significant formation of THC | 31.30 ± 1.31 (prodrug) nmol/cm^2/h | No degradation | – | 1.6-times better | –
